{"source": "patent US11826402B2", "about": "“Combination therapy involving antibodies against claudin 18.2 for treatment of metastatic pancreatic adenocarcinoma” (Astellas Pharma Inc., priority 2013, dated 2023)", "key": {"Panc05.04": {"test_system": "Panc05.04", "test": "IMAB362-mediated ADCC assay (luciferase, human PBMCs, E:T 40:1)", "type": "cell-based", "description": "(§1) For ADCC assays pancreatic cancer cell lines were transiently transfected with luciferase RNA. This luciferase RNA (pST1-luc2mut-2 hBgUTR-A121-EciI vector (pST1-109)) was produced with an ARCA cap and dissolved in H2O. RNA was stored in 22 μl aliquots at −80° C. For all pancreas cell lines the optimal electroporation conditions were determined resulting in highest transfection rates and viability of the cells. In each assay cells were detached with PBS/5 mM EDTA and 2.5×10^6 cells dissolved in 250 μl X-Vivo were mixed in ice-cold cuvettes with 10 μg RNA. Cells were immediately electroporated (GenePulser Xcell, Biorad) and resuspended in pre-warmed Assay-medium adjusting the cells to 5×10^5 cells/ml. Tested electroporation conditions were for all cell lines: • EP1: 250 V, 475 μF • EP2: 200 V, 300 μF • EP3: 150 V, 300 μF • EP4: 200 V, 400 μF • EP5: 250 V, 950 μF • Control: 0 V, 0 μF\n(§2) The viability of the cells was determined directly after electroporation using CASY or by staining cells with Trypan blue and determining the percentage of dead cells in the Neubauer chamber. Cells were seeded in quadruplicates in white 96-well plates (2.5×10^4 cells/well) and incubated for 24 h. Subsequently, luciferase activity was measured in a luminometer (Tecan Infinite200) after addition of luciferin mix for 90 min. Transfection was successful and consequently ADCC measurable, if RLU values >1.000 were obtained.\n(§3) Pancreatic cancer target cells were seeded two days in advance in flasks to obtain 80-90% confluent cultures on the day ADCC started. […] NUGC-4 sub 10cH11 subE10 Luci #2 cells (8000 cells/well) were seeded in addition as positive controls in all assays. Cells were cultivated for 4-6 h before addition of antibody and purified PBMCs. PBMCs were prepared from fresh human buffy coat obtained from healthy donors. About 3× 20-25 ml blood was diluted (1:2) with PBS and carefully layered on 4×15 ml Ficol-Paque Plus (GE Healthcare) in 50 ml Falcon tubes. Gradients were centrifuged (25 min, 700 g). After centrifugation, peripheral blood mononuclear cells (PBMC) were collected from the interphase, washed in PBS/2 mM EDTA, centrifuged (5 min, 468 g), again resuspended in PBS/2 mM EDTA and centrifuged (10 min, 208 g) to remove the platelets. The pellets were resuspended in 50 ml PBS/2 mM EDTA and cells were counted. PBMCs were centrifuged (5 min, 468 g) and resuspended in X-Vivo-15 culture medium at a concentration of 1.6×10^7 cells/ml for addition to the pancreas cells and 1.28×10^7 cells/ml for addition to the NUGC-4 sub 10cH11 subE10 Luci #2 cells.\n(§4) Of each dilution 25 μl was added in quadruplicates to the target cells. PBS without antibodies was added in the medium and lysis control wells. Subsequently, 25 μl PBMCs were added to each well (E:T ratio=40:1) and plates were incubated for 24 h±1 h at 37° C., 5% CO2.\nThe next day, 10 μl 8% Triton X100/PBS solution was added to the lysis control wells and 10 μl PBS in all other wells. Finally, 50 μl freshly prepared luciferin stock solution was added (160 mM HEPES, 1×PBS, 3.84 mg/ml D-Luciferin (BD Biosciences)) to each well and plates were incubated for 80 min at RT in the dark. Luminescence resulting from the oxidation of […] by the luciferase of viable cells was measured using a microplate-reader (Infinite200, Tecan, Switzerland). Percentage of cellular cytotoxicity was calculated using the following formula: Specific killing (%)=100−[(RLUsample−RLUtriton)/(RLUmedium ctrl−RLUtriton)×100] […]"}, "[1]": {"test_system": "LVT pancreatic cancer cell lines", "test": "IMAB362-mediated ADCC assay, LVT pancreatic cancer cell lines and corresponding parental cell lines", "type": "cell-based, human", "conditions": "for ADCC EC50 / ADCC Max. lysis: at least 2 donors", "description": "as §1, §2, §3, §4\nThe next day, 10 μl 8% Triton X100/PBS solution was added to the lysis control wells and 10 μl PBS in all other wells. Finally, 50 μl freshly prepared luciferin stock solution was added (160 mM HEPES, 1×PBS, 3.84 mg/ml D-Luciferin (BD Biosciences)) to each well and plates were incubated for 80 min at RT in the dark. Luminescence resulting from the oxidation of […] by the luciferase of viable cells was measured using a microplate-reader (Infinite200, Tecan, Switzerland). Percentage of cellular cytotoxicity was calculated using the following formula: Specific killing (%)=100−[(RLUsample−RLUtriton)/(RLUmedium ctrl−RLUtriton)×100]\nADCC analyses were also performed with LVT pancreatic cancer cell lines and their corresponding parental cell lines (FIG. 22B-F)."}, "Suit2-LVT cells": {"test_system": "Suit2-LVT cells", "test": "FACS binding to Suit2-LVT cells", "design": "species or system human", "conditions": "200 μg/ml antibody", "description": "Cells were harvested with PBS/5 mM EDTA or Trypsin/EDTA from an exponentially growing culture at 70-85% confluency. Cells were counted, centrifuged for 5 min (468 g) and the pellet was resuspended in FACS buffer (2% FCS, 0.1% sodium azide in PBS) adjusting the concentration to 2×10^6/ml. 100 μl cells were plated in round bottom 96-well plates and again centrifuged (5 min, 468 g). […] Then, 200 μl FACS buffer was added to each well and plates were centrifuged (5 min, 468 g). The supernatant was removed and washing was repeated. Secondary goat anti-human antibodies (FC specific, F(ab′)2 conjugated with APC (Dianova)) were diluted (1:100) in FACS buffer and 30 μl was added to each well. Plates were incubated for 30 min at 4° C. After incubation plates were washed again two times with 200 μl FACS buffer and the pellet was finally resuspended in 100 μl FACS buffer for measurement FACS Array Bioanalyzer (BD) according to GA_018_BD FACS Array bioanalyzer.\nIn addition to tissue processing, it is possible that the result represents unexpected inhibiting effects of the isotype control antibody targeting CLDN6. To investigate this option, the Suit2-LVT cells were analyzed for CLDN6 expression and IMAB027 binding in FACS."}, "[2]": {"test": "Repeated dose toxicity study in cynomolgus monkeys", "type": "in vivo"}, "Panc03.27": {"test_system": "Panc03.27", "test": "IMAB362-mediated ADCC assay", "type": "cell-based, human", "conditions": "at least 2 donors"}}}
{"substance": "IMAB362: chimeric IgG1 antibody directed against CLDN18.2, developed by Ganymed Pharmaceuticals AG", "values": [{"measurement": "ADCC killing by IMAB362 and PBMCs", "setting": "Panc05.04; Panc05.04", "result": "efficiently killed"}, {"measurement": "EC50 of effector cell-dependent killing (ADCC)", "setting": "Panc05.04; Panc05.04 (pooled with DANG), PBMCs of different donors, E:T 40:1", "result": "0.1 to 38", "unit": "µg/mL"}, {"measurement": "maximum killing rate (ADCC)", "setting": "Panc05.04; Panc05.04, at highest antibody concentrations", "result": "~50", "unit": "%"}, {"measurement": "ADCC EC50", "setting": "Panc05.04; Panc05.04, at least 2 donors", "result": "5.7288 ± 4.4351", "unit": "µg/mL"}, {"measurement": "ADCC Max. lysis", "setting": "Panc05.04; Panc05.04, at least 2 donors", "result": "67.1 ± 6.8", "unit": "%"}, {"measurement": "ADCC EC50", "setting": "[1]; BxPC3 (ATCC)", "result": "n.m."}, {"measurement": "ADCC Max. lysis", "setting": "[1]; BxPC3 (ATCC)", "result": "n.m."}, {"measurement": "ADCC EC50", "setting": "[1]; BxPC3 (ECACC)", "result": "n.m."}, {"measurement": "ADCC EC50", "setting": "[1]; BxPC3 LVT", "result": "0.0477 ± 0.0191", "unit": "µg/mL"}, {"measurement": "ADCC Max. lysis", "setting": "[1]; BxPC3 LVT", "result": "90.6 ± 6.4", "unit": "%"}, {"measurement": "ADCC EC50", "setting": "[1]; CAPAN1-LVT", "result": "0.06503 ± 0.0351", "unit": "µg/mL"}, {"measurement": "ADCC Max. lysis", "setting": "[1]; CAPAN1-LVT", "result": "92.6 ± 5.5", "unit": "%"}, {"measurement": "ADCC EC50", "setting": "[1]; CAPAN1", "result": "n.m."}, {"measurement": "ADCC Max. lysis", "setting": "[1]; CAPAN1", "result": "n.m."}, {"measurement": "ADCC EC50", "setting": "[1]; DANG-LVT", "result": "0.0523 ± 0.0277", "unit": "µg/mL"}, {"measurement": "ADCC Max. lysis", "setting": "[1]; DANG-LVT", "result": "85.9 ± 11.7", "unit": "%"}, {"measurement": "ADCC EC50", "setting": "[1]; HPAC-LVT", "result": "0.1168 ± 0.1054", "unit": "µg/mL"}, {"measurement": "ADCC Max. lysis", "setting": "[1]; HPAC-LVT", "result": "76.2 ± 19.4", "unit": "%"}, {"measurement": "ADCC Max. lysis", "setting": "[1]; HPAC", "result": "0-22.2%"}, {"measurement": "target dependence of ADCC", "setting": "[1]; LVT cell lines versus CLDN18.2 negative parental cell lines", "result": "only CLDN18.2 positive target cells are killed"}, {"measurement": "ADCC killing", "setting": "[1]; LVT pancreas CA cell lines", "result": "killed upon addition of small amounts of antibody at high rates"}, {"measurement": "ADCC EC50", "setting": "[1]; MiaPaCa2-LVT", "result": "0.0234 ± 0.0123", "unit": "µg/mL"}, {"measurement": "ADCC Max. lysis", "setting": "[1]; MiaPaCa2-LVT", "result": "78.1 ± 6.0", "unit": "%"}, {"measurement": "ADCC EC50", "setting": "[1]; MiaPaCa2", "result": "n.m."}, {"measurement": "ADCC EC50", "setting": "[1]; Patu8902-LVT", "result": "0.0492 ± 0.0862", "unit": "µg/mL"}, {"measurement": "ADCC Max. lysis", "setting": "[1]; Patu8902-LVT", "result": "74.1 ± 16.4", "unit": "%"}, {"measurement": "ADCC EC50", "setting": "[1]; Patu8902", "result": "n.m."}, {"measurement": "ADCC EC50", "setting": "[1]; Suit2-LVT", "result": "0.0732 ± 0.0147", "unit": "µg/mL"}, {"measurement": "ADCC Max. lysis", "setting": "[1]; Suit2-LVT", "result": "81.2 ± 7.6", "unit": "%"}, {"measurement": "ADCC EC50", "setting": "[1]; Suit2", "result": "n.m."}, {"measurement": "ADCC Max. lysis", "setting": "[1]; Suit2", "result": "n.m."}, {"measurement": "ADCC EC50", "setting": "[1]; YAPC-LVT", "result": "0.0295 ± 0.0157", "unit": "µg/mL"}, {"measurement": "ADCC Max. lysis", "setting": "[1]; YAPC-LVT", "result": "91.5 ± 6.3", "unit": "%"}, {"measurement": "ADCC EC50", "setting": "[1]; YPAC", "result": "n.m."}, {"measurement": "ADCC Max. lysis", "setting": "[1]; YPAC", "result": "n.m."}, {"measurement": "binding to cells in FACS", "setting": "Suit2-LVT cells", "result": "strong binding"}, {"measurement": "gastric toxicity", "setting": "[2]; any toxicity study", "result": "no gastric toxicity"}, {"measurement": "tolerability of repeated doses i.v.", "setting": "[2]; up to 5 weekly applications of up to 100 mg/kg", "result": "well tolerated"}, {"measurement": "ADCC EC50", "setting": "Panc03.27", "result": "n.m."}, {"measurement": "ADCC Max. lysis", "setting": "Panc03.27", "result": "n.m."}]}
